# According to patent publication US6753337B2, “Alkynyl containing hydroxamic acid compounds as matrix metalloproteinase/tace inhibitors” (Wyeth Holdings Corporation, priority 1999, dated 2004):
# Tested on: THP-1 cells
# Assay: Human monocytic THP-1 cell differentiation assay for soluble proteins (THP-1 soluble protein assay)
# Assay type: cell-based
# Conditions: LPS-stimulated THP-1 cells, soluble protein not given
# From the text: Mitogenic stimulation of THP-1 cells cause differentiation into macrophage like cells with concomitant secretion of tumor necrosis factor (TNF-α) and TNF receptor (TNF-R p75/80 and TNF-R p55160) and Interleukin-8 (IL-8), among other proteins. In addition, non-stimulated THP-1 cells shed both the p75/80 and the p55/60 receptors over time. The release of membrane bound TNF-α and possibly TNF-R p75/80 and TNF-R p55/60, but not IL-8, is mediated by an enzyme called TNF-α converting enzyme or TACE.
# THP-1 cells (from ATCC) are a human monocytic cell line which were obtained from the peripheral blood of a person with acute monocytic leukemia. They can be grown in culture and differentiated into macrophage like cells by stimulation with mitogens.
# Each vial of cells are cultured for about two weeks prior to being used for an assay and then are used for only 4 to 6 weeks to screen compounds.
# Cell exposure to DMSO was limited to 0.1% final concentration. […] Compounds can be evaluated for their effect on basal (non-stimulated) shedding of the receptors by replacing the LPS with […] of THP-1 media.
# Plates are placed into an incubator set at 5% CO2 and at 37° C. After 4 hours of incubation, […] of tissue culture supernatant (TCS) is removed for use in an TNF-α ELISA. Following 24 hours of incubation, […] of TCS is removed and used for analysis in TNF-R p75/80, TNF-R p55160 and IL-8 ELISAs.
# In addition, at the 24 hours timepoint, and the cells for each treatment group are collected by resuspension in 500 μl/well of THP-1 media and transferred into a FACS tube. […] The samples are run on a Becton Dickinson FaxCaliber FLOW cytometry machine and the amount of dye taken up by each cell is measured in the high red wavelength (FL3). Only cells with compromised membranes (dead or dying) can take up PI. The percent of live cells is calculated by the number of cells not stained with PI, divided by the total number of cells in the sample. The viability values calculated for the drug treated groups were compared to the viability value calculated for the vehicle treated mitogen stimulated group (“vehicle positive control”) to determine the “percent change from control”. This “percent change from control” value is an indicator of drug toxicity.
# The quantity of soluble TNF-α, TNF-R p75/80 and TNF-R p55160 and IL-8 in the TCS of the THP-1 cell cultures are obtained with commercially available ELISAs from R&D Systems, by extrapolation from a standard curve generated with kit standards. The number of cells that either take up or exclude PI are measured by the FLOW cytometry machine and visualized by histograms using commercially available Cytologic software for each treatment group including all controls.
# Biological variability in the magnitude of the response of THP-1 cell cultures requires that experiments be compared on the basis of percent change from “vehicle positive control” for each drug concentration. Percent change in each soluble protein evaluated from the “vehicle positive control” was calculated for each compound concentration with the following formula: [formula]
# For the soluble protein (TNF-α, p75/80, p55/60, IL-8) studies under stimulated conditions, the mean pg/ml of duplicate wells were determined and the results expressed as percent change from “vehicle positive control”. For the soluble protein (p75/80 and p55/60 receptors) studies under non-stimulated conditions, the mean pg/ml of duplicate wells were determined and the results expressed as percent change from “vehicle positive control” utilizing the following formula: [formula]
# IC50 values for each compound are calculated by non-linear regression analysis using customized software utilizing the JUMP statistical package.
# For the cell viability studies, the viabilities (PI exclusion) of pooled duplicate wells were determined and the results expressed as % change from “vehicle positive control”.
row,SMILES,inhibition at 3 µM [%]
1,"CC#CCOc1ccc(S(=O)(=O)C2(C(=O)NO)CCN(Cc3ccc(Br)cc3)CC2)cc1 [Example 1, 1-(4-Bromo-benzyl)-4-(4-but-2-ynyxoy-benzenesulfonyl)-piperdine-4-carboxylic acid hydroxyamide]",46
2,"CC#CCOc1ccc(S(=O)(=O)C2(C(=O)NO)CCN(Cc3ccc(OC)cc3)CC2)cc1 [Example 2, 4-(4-But-2-ynyloxy-benzenesulfonyl)-1-(4-methoxy-benzyl)-piperdine-4-carboxylic acid hydroxyamide]",68
3,"CC#CCOc1ccc(S(=O)(=O)C2(C(=O)NO)CCN(Cc3ccc(Cl)cc3)CC2)cc1 [Example 3, 4-(4-But-2-ynyloxy-benzenesulfonyl)-1-(4-chloro-benzyl)-piperdine-4-carboxylic acid hydroxyamide]",34
4,"CC#CCOc1ccc(S(=O)(=O)C2(C(=O)NO)CCN(Cc3ccccc3)CC2)cc1 [Example 4, 1-Benzyl-4-(4-but-2-ynyloxy-benzenesulfonyl)-piperdine-4-carboxylic acid hydroxyamide]",25
5,"CCC#CCOc1ccc(S(=O)(=O)C2(C(=O)NO)CCN(Cc3ccc(Br)cc3)CC2)cc1 [Example 5, 1-(4-Bromo-benzyl)-4-(4-pent-2-ynyloxy-benzenesulfonyl)-piperdine-4-carboxylic acid hydroxyamide]",30
6,"CC#CCOc1ccc(S(=O)(=O)C2(C(=O)NO)CCN(Cc3ccc(F)cc3)CC2)cc1 [Example 7, 4-(4-But-2-ynyloxy-benzenesulfonyl)-1-(4-fluoro-benzyl)-piperidine-4-carboxylic acid hydroxyamide]",21
7,"CC#CCOc1ccc(S(=O)(=O)C2(C(=O)NO)CCN(Cc3ccc(C#N)cc3)CC2)cc1 [Example 8, 4-(4-But-2-ynyloxy-benzenesulfonyl)-1-(4-cyano-benzyl)-piperidine-4-carboxylic acid hydroxyamide]",21
8,"CC#CCOc1ccc(S(=O)(=O)C2(C(=O)NO)CCN(Cc3ccc(C)cc3)CC2)cc1 [Example 9, 4-(4-But-2-ynyloxy-benzenesulfonyl)-1-(4-methyl-benzyl)-piperidine-4-carboxylic acid hydroxamide]",12
9,"C#CCOc1ccc(S(=O)(=O)C2(C(=O)NO)CCN(Cc3ccc(Br)cc3)CC2)cc1 [Example 11, 1-(4-Bromo-benzyl)-4-(4-prop-2-ynyloxy-benzenesulfonyl)-piperdine-4-carboxylic acid hydroxyamide]",7
10,"O=C(NO)C1(S(=O)(=O)c2ccc(OCC#CCN3CCCCC3)cc2)CCN(Cc2ccc(Br)cc2)CC1 [Example 12, 1-(4-bromo-benzyl)-4-[4-(4-piperidin-1-yl-but-2-ynyloxy)-benzenesulfonyl]-piperidine-4-carboxylic acid hydroxyamide]",58
11,"CC#CCOc1ccc(S(=O)(=O)C2(C(=O)NO)CCOCC2)cc1 [Example 20, 4-{[4-(2-butynyloxy)phenyl]sulfonyl}-N-hydroxytetrahydro-2H-pyran-4-carboxamide]",47
12,"CC#CCOc1cccc(S(=O)(=O)C2(C(=O)NO)CCN(Cc3ccccc3)CC2)c1 [Example 21, 1-benzyl-4-{[3-(2-butynyloxy)phenyl]sulfonyl}-N-hydroxy-4-piperdine carboxamide]",6
13,"CC#CCOc1ccc(S(=O)(=O)C2(C(=O)NO)CCN(C(C)C)CC2)cc1 [Example 22, 4-{[4-(2-butynyloxy)phenyl]sulfonyl}-N-hydroxy-1-isopropyl-4-piperidine carboxamide]",5
14,"CC#CCOc1ccc(S(=O)(=O)C2(C(=O)NO)CCN(Cc3cccnc3)CC2)cc1 [Example 23, 4-{[4-(2-butynyloxy)phenyl]sulfonyl}-N-hydroxy-1-(3-pyridinylmethyl)-4-piperidine carboxamide]",62
15,"CC#CCOc1ccc(S(=O)(=O)C2(C(=O)NO)CCCN(CC)C2)cc1 (centres unmarked) [Example 24, 3-{[4-(2-Butynyloxy)phenyl]sulfonyl}-1-ethyl-N-hydroxy-3-piperidinecarboxamide]",41
16,"CC#CCOc1ccc(S(=O)(=O)C2(C(=O)NO)CCCN(Cc3ccc(Cl)cc3)C2)cc1 (centres unmarked) [Example 25, 3-{[4-(2-butynyloxy)phenyl]sulfonyl}-1-(4-chlorobenzyl)-N-hydroxy-3-piperidinecarboxamide]",3
17,"CC#CCOc1ccc(S(=O)(=O)C2(C(=O)NO)CCN(Cc3ccc(OCCN4CCCCC4)cc3)CC2)cc1 [Example 26, 4-{[4-(2-Butynyloxy)phenyl]sulfonyl}-1-[4-(2-piperidin-1-yl-ethoxy)-benzyl]-piperidine-4-carboxylic acid hydroxyamide]",63
18,"CC#CCOc1ccc(S(=O)(=O)C2(C(=O)NO)CCN(C(CC)CC)CC2)cc1 [Example 27, 4-{[4-(2-Butynyloxy)phenyl]sulfonyl}-1-(3-pentanyl)-piperidine-4-carboxylic acid hydroxyamide]",13
19,"C#CCOc1ccc(S(=O)(=O)C2(C(=O)NO)CCN(Cc3ccc(OC)cc3)CC2)cc1 [Example 28, 1-(4-Methoxy-benzyl)-4-(4-prop-2-ynyloxy-benzenesulfonyl)-piperidine-4-carboxylic acid hydroxyamide]",13
20,"C#CCOc1ccc(S(=O)(=O)C2(C(=O)NO)CCN(Cc3ccc(Cl)cc3)CC2)cc1 [Example 29, 1-(4-Chlorobenzyl)-4-(4-prop-2-ynyloxy-benzenesulfonyl)-piperidine-4-carboxylic acid hydroxyamide]",13
21,"CC#CCOc1ccc(SCC2(C(=O)NO)CCN(C(=O)OC(C)(C)C)CC2)cc1 [Example 30, tert-butyl-4-({[4-(2-butynyloxy)phenyl]sulfanyl}methyl)-4-[(hydroxyamino)-carbonyl]-1-piperidinecarboxylate]",0
22,"CC#CCOc1ccc(SCC2(C(=O)NO)CCNCC2)cc1 [Example 31, 4-({[4-(But-2-ynyloxy)phenyl]thio}methyl)-N-hydroxypiperidine-4-carboxamide]",8
23,"CC#CCOc1ccc([S+]([O-])CC2(C(=O)NO)CCN(C(=O)OC(C)(C)C)CC2)cc1 (centres unmarked) [Example 32, tert-Butyl-4-({[4-(2-butynyloxy)phenyl]sulfinyl}methyl)-4-[(hydroxyamino)-carbonyl]-1-piperidinecarboxylate]",0
24,"CC#CCOc1ccc([S+]([O-])CC2(C(=O)NO)CCNCC2)cc1 (centres unmarked) [Example 33, 4-[[[4-(2-Butynyloxy)phenyl]sulfinyl]methyl]-N-hydroxy-4-piperidinecarboxamide]",8
25,"CC#CCOc1ccc(S(=O)(=O)CC2(C(=O)NO)CCN(C(=O)OC(C)(C)C)CC2)cc1 [Example 34, tert-Butyl-4-({[4-(but-2-ynyloxy)phenyl]sulfonyl}methyl)-4-[(hydroxyamino)-carbonyl]piperidine-1-carboxylate]",68
26,"CC#CCOc1ccc(S(=O)(=O)CC2(C(=O)NO)CCN(C(C)=O)CC2)cc1 [Example 36, 1-Acetyl-4-[[[4-(2-butynyloxy)phenyl]sulfonyl]methyl]-N-hydroxy-4-piperidinecarboxamide]",58
27,CC#CCOc1ccc(S(=O)(=O)CC2(C(=O)NO)CCN(C(=O)NC(C)(C)C)CC2)cc1 [Example 38],53
28,"CC#CCOc1ccc(S(=O)(=O)CC2(C(=O)NO)CCN(C(=O)OCc3ccccc3)CC2)cc1 [Example 40, Benzyl 4-({[4-(2-butynyloxy)phenyl]sulfonyl}methyl)-4-[(hydroxyamino)-carbonyl]-1-piperidinecarboxylate]",41
29,CC#CCOc1ccc(S(=O)(=O)CC2(C(=O)NO)CCN(Cc3ccccc3)CC2)cc1 [Example 41],60
